Source: ChEMBL document CHEMBL1201862, “PubChem BioAssay data set” (2004)
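96-well plates; 48 h exposure; 5 concentrations. Endpoints by linear interpolation between flanking doses. Not reached: highest tested concentration assigned. Abbreviation: GI50, concentration required for 50% inhibition of growth.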 The source made the active and inactive calls. Rule as the data show it: active = GI50 up to about 1.1 µM and inactive = higher.

What was measured:
Test in all cases: inhibition of tumour cell growth, NCI panel, 48 h
CAKI-1 = test system: CAKI-1
COLO 205 = test system: COLO 205
HCT-116 = test system: HCT-116
HOP-92 = test system: HOP-92
IGROV-1 = test system: IGROV-1
M14 = test system: M14
NCI-H23 = test system: NCI-H23
OVCAR-3 = test system: OVCAR-3
OVCAR-4 = test system: OVCAR-4
SK-MEL-2 = test system: SK-MEL-2
SNB-19 = test system: SNB-19
SR = test system: SR
TK-10 = test system: TK-10
UACC-62 = test system: UACC-62
LOX IMVI = test system: LOX IMVI
OVCAR-5 = test system: OVCAR-5
RXF 393 = test system: RXF 393

Measured: GI50

CCCCCCCCCCCCCCCCOCC(CP(=O)([O-])OCC[n+]1ccccc1)OC (stereo unspecified)
inactive: CAKI-1 10.4 µM | COLO 205 6.46 µM | HCT-116 9.66 µM | HOP-92 2.28 µM | IGROV-1 3.84 µM | M14 5.6 µM | NCI-H23 4.05 µM | OVCAR-3 12.6 µM | OVCAR-4 11.4 µM | SK-MEL-2 16.5 µM | SNB-19 10.1 µM | SR 3.5 µM | TK-10 2.9 µM | UACC-62 11.3 µM

O=C1Nc2c(ccc(Cl)c2I)C1=O
inactive: CAKI-1 16.4 µM | COLO 205 16.3 µM | HCT-116 19.1 µM | IGROV-1 16.6 µM | LOX IMVI 19.1 µM | M14 15.7 µM | NCI-H23 14.6 µM | OVCAR-3 19.9 µM | OVCAR-4 16.9 µM | OVCAR-5 20 µM | RXF 393 17.4 µM | SK-MEL-2 13.7 µM | SNB-19 42.3 µM | SR 18.8 µM | TK-10 36.2 µM | UACC-62 17.6 µM

NC(=S)N1N=C2CCCCCC[C@@H]2[C@H]1c1ccccc1
inactive: CAKI-1 > 100 µM | COLO 205 46.7 µM | HCT-116 43.1 µM | IGROV-1 63.2 µM | LOX IMVI 32.8 µM | M14 74.5 µM | NCI-H23 40.2 µM | OVCAR-3 39.3 µM | OVCAR-5 > 100 µM | RXF 393 95.9 µM | SK-MEL-2 64.6 µM | SNB-19 63.1 µM | TK-10 63 µM | UACC-62 44.1 µM

CC(=O)NC1=C(N)C(=O)c2ccccc2C1=O
inactive: CAKI-1 > 100 µM | COLO 205 30.5 µM | HCT-116 17.7 µM | HOP-92 > 100 µM | IGROV-1 > 100 µM | LOX IMVI 15.3 µM | M14 43.6 µM | NCI-H23 59.2 µM | OVCAR-3 20.2 µM | OVCAR-5 > 100 µM | RXF 393 46.9 µM | SK-MEL-2 90.6 µM | SNB-19 > 100 µM | TK-10 > 100 µM | UACC-62 49.8 µM

N#CC1CCCCCCCCCCC(=O)N(CCCl)C1=O (stereo unspecified)
inactive: CAKI-1 > 100 µM | COLO 205 > 100 µM | HOP-92 > 100 µM | IGROV-1 > 100 µM | LOX IMVI > 100 µM | M14 > 100 µM | NCI-H23 > 100 µM | OVCAR-3 > 100 µM | OVCAR-4 > 100 µM | OVCAR-5 > 100 µM | RXF 393 > 100 µM | SK-MEL-2 > 100 µM | SNB-19 > 100 µM | TK-10 > 100 µM | UACC-62 > 100 µM

CCC(=O)CC(=O)CCC(=O)Nc1cc(C)ccc1C
inactive: HCT-116 > 100 µM | HOP-92 > 100 µM | IGROV-1 > 100 µM | LOX IMVI > 100 µM | M14 > 100 µM | NCI-H23 > 100 µM | OVCAR-3 > 100 µM | RXF 393 > 100 µM | SK-MEL-2 > 100 µM | SNB-19 > 100 µM | SR > 100 µM | TK-10 > 100 µM | UACC-62 > 100 µM

COC(=O)c1nc(-c2ccc(Cl)c(Cl)c2)nc2ccccc12
inactive: CAKI-1 44.3 µM | HCT-116 13.1 µM | IGROV-1 48.9 µM | LOX IMVI > 100 µM | M14 > 24.1 µM | NCI-H23 57.9 µM | OVCAR-3 14.5 µM | OVCAR-4 7.83 µM | OVCAR-5 > 100 µM | RXF 393 13.6 µM | SK-MEL-2 71.8 µM | SNB-19 5.89 µM | TK-10 34.6 µM | UACC-62 > 27.7 µM

CN(C)CCC(O)(c1ccccc1)C(O)(CCN(C)C)c1ccccc1 (stereo unspecified)
inactive: CAKI-1 > 100 µM | COLO 205 72.9 µM | IGROV-1 > 100 µM | M14 17.4 µM | NCI-H23 > 100 µM | OVCAR-3 > 100 µM | OVCAR-4 > 100 µM | OVCAR-5 > 100 µM | SK-MEL-2 > 100 µM | SNB-19 > 100 µM | TK-10 > 100 µM | UACC-62 > 100 µM

c1ccc2c(c1)CCc1cc3cc4c(nc3nc1-2)-c1ccccc1CC4
inactive: COLO 205 > 100 µM | HCT-116 > 100 µM | IGROV-1 > 100 µM | LOX IMVI > 100 µM | M14 > 100 µM | NCI-H23 > 100 µM | OVCAR-3 > 100 µM | RXF 393 69.7 µM | SNB-19 > 100 µM | SR > 100 µM | TK-10 > 100 µM | UACC-62 > 100 µM

O=C(O)C1=Cc2cccc3cccc(c23)C1=O
inactive: CAKI-1 > 100 µM | COLO 205 > 100 µM | HCT-116 > 100 µM | IGROV-1 > 100 µM | LOX IMVI > 100 µM | M14 > 100 µM | NCI-H23 > 100 µM | OVCAR-3 > 100 µM | OVCAR-4 > 100 µM | OVCAR-5 > 100 µM | RXF 393 > 100 µM | SK-MEL-2 > 100 µM | SNB-19 > 100 µM | SR > 100 µM | TK-10 > 100 µM | UACC-62 > 100 µM

NCCCOc1ccc([N+](=O)[O-])cc1Cl
inactive: CAKI-1 28.1 µM | COLO 205 > 100 µM | HCT-116 > 100 µM | HOP-92 68.9 µM | IGROV-1 > 100 µM | M14 > 100 µM | NCI-H23 > 100 µM | OVCAR-3 > 100 µM | OVCAR-4 > 100 µM | OVCAR-5 > 100 µM | SK-MEL-2 > 100 µM | SNB-19 > 100 µM | SR > 100 µM | TK-10 > 100 µM | UACC-62 > 100 µM

COc1cc2c(cc1OCc1ccccc1)CNCC2
inactive: CAKI-1 > 100 µM | COLO 205 > 100 µM | HCT-116 > 100 µM | HOP-92 23.6 µM | IGROV-1 > 100 µM | LOX IMVI 91.6 µM | M14 > 100 µM | NCI-H23 > 100 µM | OVCAR-3 > 100 µM | OVCAR-4 > 100 µM | OVCAR-5 > 100 µM | RXF 393 > 100 µM | SK-MEL-2 > 100 µM | SNB-19 > 100 µM | TK-10 > 100 µM | UACC-62 > 100 µM

O=C1C=C(c2[nH]c3ccccc3c2C2=CC(=O)c3ccccc3C2=O)C(=O)c2ccccc21
inactive: COLO 205 > 100 µM | IGROV-1 30.1 µM | LOX IMVI 22.1 µM | M14 68.7 µM | NCI-H23 41.3 µM | OVCAR-3 21.6 µM | OVCAR-4 33.7 µM | OVCAR-5 > 100 µM | RXF 393 39.7 µM | SNB-19 70.1 µM | SR 20.6 µM | TK-10 94.4 µM | UACC-62 24.9 µM

CC1C(c2ccccc2)N(C)C(c2ccccc2)C(C)C1(O)c1ccccc1 (stereo unspecified)
inactive: CAKI-1 > 100 µM | COLO 205 20 µM | HCT-116 26.4 µM | HOP-92 83.9 µM | IGROV-1 > 100 µM | LOX IMVI 37.2 µM | M14 > 100 µM | NCI-H23 > 100 µM | OVCAR-3 51.4 µM | OVCAR-4 > 100 µM | OVCAR-5 > 100 µM | RXF 393 > 100 µM | SK-MEL-2 79.6 µM | SNB-19 > 100 µM | TK-10 > 100 µM | UACC-62 > 100 µM

Cn1cnc([N+](=O)[O-])c1Sc1nnc(C(F)(F)F)n1C
inactive: CAKI-1 62.1 µM | COLO 205 14.6 µM | HCT-116 16.3 µM | HOP-92 16 µM | IGROV-1 40 µM | LOX IMVI 15.3 µM | M14 17.4 µM | NCI-H23 37.5 µM | OVCAR-3 22 µM | OVCAR-4 24.3 µM | OVCAR-5 > 100 µM | SK-MEL-2 21.9 µM | SNB-19 > 100 µM | SR 17.6 µM | TK-10 26.4 µM | UACC-62 18 µM

C=C1[C@@H]2CCC(C)(C)[C@H]1CCC(=O)[C@@H]2C(=O)OC
inactive: COLO 205 > 100 µM | HCT-116 > 100 µM | IGROV-1 > 100 µM | LOX IMVI > 100 µM | M14 > 100 µM | NCI-H23 > 100 µM | OVCAR-3 > 100 µM | OVCAR-4 > 100 µM | RXF 393 > 100 µM | SK-MEL-2 > 100 µM | SNB-19 > 100 µM | SR > 100 µM | TK-10 > 100 µM | UACC-62 > 100 µM

CCc1cccc(C)c1NC(C)=O
inactive: CAKI-1 > 100 µM | HCT-116 > 100 µM | IGROV-1 > 100 µM | M14 > 100 µM | NCI-H23 > 100 µM | OVCAR-3 > 100 µM | OVCAR-4 > 100 µM | OVCAR-5 > 100 µM | RXF 393 > 100 µM | SK-MEL-2 > 100 µM | TK-10 > 100 µM | UACC-62 > 100 µM

C/C(=N\NS(=O)(=O)c1ccc(C)cc1)c1cc2ccccc2n1C
inactive: COLO 205 > 100 µM | HCT-116 > 100 µM | IGROV-1 > 100 µM | LOX IMVI > 100 µM | M14 > 100 µM | NCI-H23 > 100 µM | OVCAR-4 > 100 µM | SK-MEL-2 > 100 µM | SNB-19 69.8 µM | SR > 100 µM | UACC-62 76.2 µM

Cc1cc(Cl)ccc1NC(=O)C1C(=O)N(c2ccc(Cl)cc2C)C(=O)/C1=N\NC(N)=S (stereo unspecified)
inactive: COLO 205 32.1 µM | HCT-116 21.9 µM | HOP-92 23.7 µM | M14 28.2 µM | NCI-H23 19.8 µM | OVCAR-3 32.8 µM | OVCAR-4 18.5 µM | OVCAR-5 24.3 µM | RXF 393 16 µM | SNB-19 37.3 µM | TK-10 47.9 µM | UACC-62 31.6 µM
